Measured values published in patent US9771369B2, “Compounds and methods for kinase modulation, and indications therefor” (Plexxikon Inc., priority 2014, dated 2017).

Tests used:
[1] = test system: BaF3-FL KIT D816V or BaF3-FL KIT V560G/D816V cell line; experiment: Cell-based assays of c-Kit mutant kinase activity (cell proliferation, ATPlite); settings: at least one of the c-kit cell assays of Example 7
In short: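 BaF3 cells dependent on transfected full-length human KIT D816V or V560G/D816V (pCI-Neo, CMV promoter) were seeded at 1×10^4 cells/well and exposed to 8-point 1:3 dilutions from 10 μM top (0.2% DMSO) for three days at 37° C. ATPlite luminescence gave cell number; IC50 from concentration-response.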

c-kit mutant D816V = c-kit mutant D816V (Homo sapiens (Human), UniProt P10721, D816V/DEL694-753); experiment: c-Kit mutant D816V biochemical assay (AlphaScreen kinase activity)
Sequence of c-kit mutant D816V (P10721 other isoform, or with tags, fused parts or gaps D816V/del 694-753): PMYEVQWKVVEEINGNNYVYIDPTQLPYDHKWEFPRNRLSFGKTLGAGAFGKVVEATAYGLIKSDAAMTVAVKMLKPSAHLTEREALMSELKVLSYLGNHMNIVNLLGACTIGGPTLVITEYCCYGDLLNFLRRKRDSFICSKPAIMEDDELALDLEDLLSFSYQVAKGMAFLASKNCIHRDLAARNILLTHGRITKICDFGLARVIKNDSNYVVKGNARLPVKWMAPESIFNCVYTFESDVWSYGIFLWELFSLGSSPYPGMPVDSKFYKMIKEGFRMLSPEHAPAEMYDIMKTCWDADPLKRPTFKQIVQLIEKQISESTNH
In short: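 Recombinant His-tagged c-Kit D816V kinase domain (residues 551-934, insert 694-753 deleted, E. coli-expressed) phosphorylating 30 nM biotin-(E4Y)10 with 10 μM ATP, HEPES pH 7.2, Mg/Mn, 5% DMSO; 30 min, room temperature. Phosphorylation detected by AlphaScreen (streptavidin donor/PY30 acceptor beads); IC50 from 8-point 1:3 series.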

Compound	IC50 [1] [nM]	IC50 (c-kit mutant D816V) [µM]
COc1cc(-c2cc3c(N4CCC(c5nc(C)c(-c6cccc(OC(F)(F)F)c6)[nH]5)CC4)ncnc3[nH]2)ccn1 [P-3014, 6-(2-methoxy-4-pyridyl)-4-[4-[4-methyl-5-[3-(trifluoromethoxy)phenyl]-1H-imidazol-2-yl]-1-piperidyl]-7H-pyrrolo[2,3-d]pyrimidine]	< 10000	0.0001 to 1
COc1ccc(-c2[nH]c(C3CCN(c4ncnc5[nH]c(-c6ccc(C#N)cc6)cc45)CC3)nc2C)cc1 [P-3015, 4-[4-[4-[5-(4-methoxyphenyl)-4-methyl-1H-imidazol-2-yl]-1-piperidyl]-7H-pyrrolo[2,3-d]pyrimidin-6-yl]benzonitrile]	< 10000	0.0001 to 1
Cc1nc(C2CCN(c3ncnc4[nH]c(-c5ccc(C#N)cc5)cc34)CC2)[nH]c1-c1cccc(F)c1 [P-3016, 4-[4-[4-[5-(3-fluorophenyl)-4-methyl-1H-imidazol-2-yl]-1-piperidyl]-7H-pyrrolo[2,3-d]pyrimidin-6-yl]benzonitrile]	< 10000	0.0001 to 1
COc1ccc(-c2[nH]c(C3CCN(c4ncnc5[nH]c(-c6ccnc(OC)c6)cc45)CC3)nc2C)cc1 [P-3017, 4-[4-[5-(4-methoxyphenyl)-4-methyl-1H-imidazol-2-yl]-1-piperidyl]-6-(2-methoxy-4-pyridyl)-7H-pyrrolo[2,3-d]pyrimidine]	< 10000	0.0001 to 1
COc1ccc(-c2[nH]c(C3CCN(c4ncnc5[nH]c(-c6ccc(C#N)cc6)cc45)CC3)nc2C)cc1F [P-3018, 4-[4-[4-[5-(3-fluoro-4-methoxy-phenyl)-4-methyl-1H-imidazol-2-yl]-1-piperidyl]-7H-pyrrolo[2,3-d]pyrimidin-6-yl]benzonitrile]	< 10000	0.0001 to 1
CCOc1ccc(-c2[nH]c(C3(C)CCN(c4ncnc5[nH]c(-c6ccc(OC)nc6)cc45)CC3)nc2C)cc1 [P-3171, 4-[4-[5-(4-ethoxyphenyl)-4-methyl-1H-imidazol-2-yl]-4-methyl-1-piperidyl]-6-(6-methoxy-3-pyridyl)-7H-pyrrolo[2,3-d]pyrimidine]	< 10000	0.0001 to 1
COc1ccc(-c2[nH]c(C3(C)CCN(c4ncnc5[nH]c(-c6ccc(C#N)cc6)cc45)CC3)nc2C)cn1 [P-3172, 4-[4-[4-[5-(6-methoxy-3-pyridyl)-4-methyl-1H-imidazol-2-yl]-4-methyl-1-piperidyl]-7H-pyrrolo[2,3-d]pyrimidin-6-yl]benzonitrile]	< 10000	0.0001 to 1
COc1ncc(-c2[nH]c(C3CCN(c4ncnc5[nH]c(-c6ccc(C#N)cc6)cc45)CC3)nc2C)cc1F [P-3173, 4-[4-[4-[5-(5-fluoro-6-methoxy-3-pyridyl)-4-methyl-1H-imidazol-2-yl]-1-piperidyl]-7H-pyrrolo[2,3-d]pyrimidin-6-yl]benzonitrile]	< 10000	0.0001 to 1
Cc1nc(C2(C)CCN(c3ncnc4[nH]c(-c5cnn(C(F)F)c5)cc34)CC2)[nH]c1-c1ccc(Cl)cc1 [P-3175, 4-[4-[5-(4-chlorophenyl)-4-methyl-1H-imidazol-2-yl]-4-methyl-1-piperidyl]-6-[1-(difluoromethyl)pyrazol-4-yl]-7H-pyrrolo[2,3-d]pyrimidine]	< 10000	0.0001 to 1
COc1ccc(-c2cc3c(N4CCC(C)(c5nc(C)c(-c6ccc(Cl)cc6)[nH]5)CC4)ncnc3[nH]2)cn1 [P-3176, 4-[4-[5-(4-chlorophenyl)-4-methyl-1H-imidazol-2-yl]-4-methyl-1-piperidyl]-6-(6-methoxy-3-pyridyl)-7H-pyrrolo[2,3-d]pyrimidine]	< 10000	0.0001 to 1
Cc1nc(C2(C)CCN(c3ncnc4[nH]c(-c5ccc(C#N)cc5)cc34)CC2)[nH]c1-c1ccc(C(F)(F)F)cc1 [P-3177, 4-[4-[4-methyl-4-[4-methyl-5-[4-(trifluoromethyl)phenyl]-1H-imidazol-2-yl]-1-piperidyl]-7H-pyrrolo[2,3-d]pyrimidin-6-yl]benzonitrile]	< 10000	0.0001 to 1
COc1ccc(-c2cc3c(N4CCC(C)(c5nc(C)c(-c6ccc(C(F)(F)F)cc6)[nH]5)CC4)ncnc3[nH]2)cn1 [P-3178, 6-(6-methoxy-3-pyridyl)-4-[4-methyl-4-[4-methyl-5-[4-(trifluoromethyl)phenyl]-1H-imidazol-2-yl]-1-piperidyl]-7H-pyrrolo[2,3-d]pyrimidine]	< 10000	0.0001 to 1
Cc1nc(C2(C)CCN(c3ncnc4[nH]c(-c5cnn(C(F)F)c5)cc34)CC2)[nH]c1-c1ccc(C(F)(F)F)cc1 [P-3179, 6-[1-(difluoromethyl)pyrazol-4-yl]-4-[4-methyl-4-[4-methyl-5-[4-(trifluoromethyl)phenyl]-1H-imidazol-2-yl]-1-piperidyl]-7H-pyrrolo[2,3-d]pyrimidine]	< 10000	0.0001 to 1
Cc1nc(C2(C)CCN(c3ncnc4[nH]c(-c5ccc(C#N)cc5)cc34)CC2)[nH]c1-c1ccc(Cl)cc1 [P-3180, 4-[4-[4-[5-(4-chlorophenyl)-4-methyl-1H-imidazol-2-yl]-4-methyl-1-piperidyl]-7H-pyrrolo[2,3-d]pyrimidin-6-yl]benzonitrile]	< 10000	0.0001 to 1
COc1ncc(-c2[nH]c(C3(C)CCN(c4ncnc5[nH]c(-c6ccc(C#N)cc6)cc45)CC3)nc2C)cc1F [P-3181, 4-[4-[4-[5-(5-fluoro-6-methoxy-3-pyridyl)-4-methyl-1H-imidazol-2-yl]-4-methyl-1-piperidyl]-7H-pyrrolo[2,3-d]pyrimidin-6-yl]benzonitrile]	< 10000	0.0001 to 1
COc1ccc(-c2[nH]c(C3(C)CCN(c4ncnc5[nH]c(-c6cnn(C(F)F)c6)cc45)CC3)nc2C)cn1 [P-3182, 6-[1-(difluoromethyl)pyrazol-4-yl]-4-[4-[5-(6-methoxy-3-pyridyl)-4-methyl-1H-imidazol-2-yl]-4-methyl-1-piperidyl]-7H-pyrrolo[2,3-d]pyrimidine]	< 10000	0.0001 to 1
COc1ccc(-c2[nH]c(C3(C)CCN(c4ncnc5[nH]c(C)cc45)CC3)nc2C)cc1F [P-3183, 4-[4-[5-(3-fluoro-4-methoxy-phenyl)-4-methyl-1H-imidazol-2-yl]-4-methyl-1-piperidyl]-6-methyl-7H-pyrrolo[2,3-d]pyrimidine]	< 10000	0.0001 to 1
Cc1cc2c(N3CCC(C)(c4nc(C)c(-c5ccc(C(F)F)cc5)[nH]4)CC3)ncnc2[nH]1 [P-3184, 4-[4-[5-[4-(difluoromethyl)phenyl]-4-methyl-1H-imidazol-2-yl]-4-methyl-1-piperidyl]-6-methyl-7H-pyrrolo[2,3-d]pyrimidine]	< 10000	0.0001 to 1
COc1ncc(-c2nc(C3(C)CCN(c4ncnc5[nH]c(C)cc45)CC3)[nH]c2C)cc1F [P-3185, 4-[4-[4-(5-fluoro-6-methoxy-3-pyridyl)-5-methyl-1H-imidazol-2-yl]-4-methyl-1-piperidyl]-6-methyl-7H-pyrrolo[2,3-d]pyrimidine]	< 10000	0.0001 to 1
COc1ccc(-c2nc(C3(C)CCN(c4ncnc5[nH]c(C)cc45)CC3)[nH]c2C)cn1 [P-3186, 4-[4-[4-(6-methoxy-3-pyridyl)-5-methyl-1H-imidazol-2-yl]-4-methyl-1-piperidyl]-6-methyl-7H-pyrrolo[2,3-d]pyrimidine]	< 10000	0.0001 to 1
COc1ccc(-c2[nH]c(C3(C)CCN(c4ncnc5[nH]c(-c6cnn(C(F)F)c6)cc45)CC3)nc2C)cc1F [P-3187, 6-[1-(difluoromethyl)pyrazol-4-yl]-4-[4-[5-(3-fluoro-4-methoxy-phenyl)-4-methyl-1H-imidazol-2-yl]-4-methyl-1-piperidyl]-7H-pyrrolo[2,3-d]pyrimidine]	< 10000	0.0001 to 1
COc1ccc(-c2cc3c(N4CCC(C)(c5nc(C)c(-c6ccc(OC)c(F)c6)[nH]5)CC4)ncnc3[nH]2)cn1 [P-3188, 4-[4-[5-(3-fluoro-4-methoxy-phenyl)-4-methyl-1H-imidazol-2-yl]-4-methyl-1-piperidyl]-6-(6-methoxy-3-pyridyl)-7H-pyrrolo[2,3-d]pyrimidine]	< 10000	0.0001 to 1
Cc1nc(C2(C)CCN(c3ncnc4[nH]c(-c5cnn(C(F)F)c5)cc34)CC2)[nH]c1-c1ccc(C(F)F)cc1 [P-3189, 4-[4-[5-[4-(difluoromethyl)phenyl]-4-methyl-1H-imidazol-2-yl]-4-methyl-1-piperidyl]-6-[1-(difluoromethyl)pyrazol-4-yl]-7H-pyrrolo[2,3-d]pyrimidine]	< 10000	0.0001 to 1
COc1ccc(-c2cc3c(N4CCC(C)(c5nc(C)c(-c6ccc(C(F)F)cc6)[nH]5)CC4)ncnc3[nH]2)cn1 [P-3190, 4-[4-[5-[4-(difluoromethyl)phenyl]-4-methyl-1H-imidazol-2-yl]-4-methyl-1-piperidyl]-6-(6-methoxy-3-pyridyl)-7H-pyrrolo[2,3-d]pyrimidine]	< 10000	0.0001 to 1
Cc1cc2c(N3CCC(C)(c4nc(C)c(-c5cccc(OC(F)F)c5)[nH]4)CC3)ncnc2[nH]1 [P-3191, 4-[4-[5-[3-(difluoromethoxy)phenyl]-4-methyl-1H-imidazol-2-yl]-4-methyl-1-piperidyl]-6-methyl-7H-pyrrolo[2,3-d]pyrimidine]	< 10000	0.0001 to 1
Cc1nc(C2(C)CCN(c3ncnc4[nH]c(-c5cnn(C(F)F)c5)cc34)CC2)[nH]c1-c1cccc(OC(F)F)c1 [P-3192, 4-[4-[5-[3-(difluoromethoxy)phenyl]-4-methyl-1H-imidazol-2-yl]-4-methyl-1-piperidyl]-6-[1-(difluoromethyl)pyrazol-4-yl]-7H-pyrrolo[2,3-d]pyrimidine]	< 10000	0.0001 to 1
